From patent US9315678B2, “Affinity of hardly soluble or insoluble substance solvent by water-soluble xylan” (Ezaki Glico Co., Ltd., priority 2006, dated 2016)
Blank lines part the entries; values can stand above or below the molecule they belong to.

Columns and labels:
Assay type in all cases: physicochemical
[1] = Carbon nanotube solubilizing capability of saccharide aqueous solutions (absorbance of supernatant at 500 nm); conditions: for amount of the solubilized carbon nanotube (in words): at the investigated concentrations of Table 1; for A500: about 4 mg SWCNT-1 per 1 mL, ultra sound 5 min
Method: (§1) The amount of the carbon nanotube dissolved in the solution can be measured, for example, by recovering the carbon nanotube by centrifugation at 70,000×g for 15 minutes and measuring the weight thereof. Alternatively, as described in the literature “Chem. Commun.”, P. 193 (2001), the concentration of the carbon nanotube has quite a high correlation with the absorbance at 500 nm, and the water-soluble xylan has almost no absorption at the wavelength. Thus, the concentration of the carbon nanotube is easily determined by measuring the absorbance of the solution at 500 nm, unless the solution contains any other substances having absorption at around 500 nm. In the case where a hardly soluble or insoluble substance is used as another substance, the method for measuring the concentration of the substance in the solution can be appropriately selected in depending on the substance.
A solubilizing capability of the water-soluble xylan was compared with those of other saccharides. As the water-soluble xylan, glucuronoxylan (manufactured by Institute of Chemistry, Slovak Academy of Sciences; the number average molecular weight: 18,000; xylose residue: 4-O-methyl-D-glucuronic acid reside=10:1; no acetylation) was used. For comparison, various saccharide solutions of amylose (the number average molecular weight of 2,900), pectin (derived from citrus fruit), polygalacturonic acid, methylcellulose, fucoidan, xanthan gum, carboxymethyl cellulose, an Abelmoschus manihot extraction liquid, a Hydrangea paniculata extraction liquid, gum arabic, β-1,3-glucan (schizophyllan, curdlan), and xylo-oligosaccarides (polymerization degrees of 2 and 5) were used.
To 1 mL of each of the saccharide aqueous solutions, about 4 mg of the single layer carbon nanotube powder (SWCNT-1 manufactured by Shenzhen Nanotech Port Co., Ltd.) was added and then stirred for about 10 seconds with a Vortex mixer. The mixture was applied ultra sound with a bath type sonicator (UT-205 manufactured by Sharp Corporation) at a room temperature (15° C. to 20° C.) for 5 minutes to dissolve the carbon nanotube. The obtained solution was centrifuged at 2,200×g for 10 minutes, and then the supernatant thereof was collected. The amount of the dissolved carbon nanotube was estimated by measuring the absorbance of the supernatant at 500 nm. The saccharides vary from one another in solubility to water.
Within the same concentration range, the absorbances at 500 nm of the solutions containing another saccharide were 3 or less.

[2] = Preparation of carbon nanotube solution with water-soluble xylan: absorbance at 500 nm and dissolved carbon nanotube
Method: as §1
As water-soluble xylan, glucuronoxylan (manufactured by Institute of Chemistry, Slovak Academy of Sciences; the number average molecular weight: 18,000; xylose residue: 4-O-methyl-D-glucuronic acid reside=10:1; no acetylation; derived from beech) was used. To 1 L of a 0.4 mg/mL glucuronoxylan aqueous solution, 2 g of a single-layer carbon nanotube powder (SWCNT-1 manufactured by Shenzhen Nanotech Port Co., Ltd.) was added, and then stirred with a magnetic stirrer. The mixture was sequentially applied ultra sound by an ultra sound dispersing machine (Model UH-600SR, HO-F36 flanged chip, RD-36 continuous holder; manufactured by SMT Co., Ltd.) at a room temperature (15° C. to 20° C.) for 130 minutes at a flow rate of 1 L/min to dissolve and disperse the carbon nanotube. The obtained solution was centrifuged at 2,200×g for 15 minutes, and then collected the supernatant. The supernatant was a blackish solution.
The obtained solution was centrifuged at 70,000×g for 10 minutes to collect the carbon nanotube as a precipitate. To the obtained precipitate, 50 mL of the aforementioned glucuronoxylan aqueous solution was added, and the carbon nanotube was dispersed by applying an ultra sound at a room temperature (15° C. to 20° C.) for 5 minutes with a bath type sonicator (Branson 1200).
To 10 L of the water-soluble xylan solution prepared by Preparative Example 1, 5 g of a single-layer carbon nanotube powder (SWCNT-1 manufactured by Shenzhen Nanotech Port Co., Ltd.) was added and then stirred. The mixture was sequentially applied ultra sound by an ultra sound dispersing machine (Model UH-600SR, HO-F36 flanged chip, RD-36 continuous holder; manufactured by SMT Co., Ltd.) at a room temperature (15° C. to 20° C.) for 90 minutes at a flow rate of 1 L/min to dissolve and disperse the carbon nanotube. The obtained solution was centrifuged at 2,200×g for 15 minutes, and then the supernatant was collected. […]

[3] = Carbon nanotube solubilizing capability of saccharide aqueous solutions (absorbance of supernatant at 500 nm); conditions: Example 2-2, FIG. 4; concentration dependency
[4] = saccharide 5 mg/mL (5.00), supernatant
[5] = saccharide 10.00 mg/mL, supernatant
[6] = saccharide 2.50 mg/mL, supernatant
[7] = saccharide 0.40 mg/mL, supernatant after 2,200xg 10 min
[8] = Example 1-1: 0.4 mg/mL glucuronoxylan, 2 g SWCNT-1 per 1 L, ultra sound 130 min, supernatant after 2,200xg 15 min
[9] = Example 1-1: 70,000xg precipitate re-dispersed in 50 mL glucuronoxylan solution, ultra sound 5 min
[10] = saccharide 1.00 mg/mL, supernatant
[11] = saccharide 2.00 mg/mL, supernatant

Molecule: amylose
A500 [1, 4]: 0.02
A500 [1, 5]: 0.06

Molecule: fucoidan
amount of the solubilized carbon nanotube (in words) [1]: close to that when using the water-soluble xylan
A500 [1, 6]: 1.33
A500 [1, 5]: 6.80

Molecule: methylcellulose
A500 [1, 10]: 0.16
A500 [1, 11]: 0.80

Molecule: schizophyllan
A500 ([1]; saccharide 0.20 mg/mL, supernatant): 0.12
A500 [1, 7]: 0.95

Molecule: xanthan gum
amount of the solubilized carbon nanotube (in words) [1]: close to that when using the water-soluble xylan
A500 [1, 10]: 2.79
A500 [1, 11]: 6.91

The next lines start with results.

A500 ([1]; saccharide 16 mg/mL, supernatant): 0.00
Molecule: OC1OC[C@@H](O[C@@H]2OC[C@@H](O)[C@H](O)[C@H]2O)[C@H](O)[C@H]1O (stereo partly drawn)
amount of the solubilized carbon nanotube (in words) [1]: did not exhibit solubilization of carbon nanotube at all

A500 [1, 4]: 0.00
Molecule: OC1OC[C@@H](O[C@@H]2OC[C@@H](O[C@@H]3OC[C@@H](O[C@@H]4OC[C@@H](O[C@@H]5OC[C@@H](O)[C@H](O)[C@H]5O)[C@H](O)[C@H]4O)[C@H](O)[C@H]3O)[C@H](O)[C@H]2O)[C@H](O)[C@H]1O (stereo partly drawn)
amount of the solubilized carbon nanotube (in words) [1]: did not exhibit solubilization of carbon nanotube at all

A500 [1, 6]: 5.64
A500 [1, 5]: 2.37
Molecule: carboxymethyl cellulose [Carboxy Methylcellulose]
amount of the solubilized carbon nanotube (in words) [1]: close to that when using the water-soluble xylan

A500 [1, 7]: 0.02
Molecule: curdlan

amount of the solubilized carbon nanotube (in words) [1]: largest
A500 [1, 7]: 10.70
absorbance at 500 nm [2, 8]: 7.57
carbon nanotube contained in solution [2, 8]: about 282 μg/mL
absorbance at 500 nm [2, 9]: 122
carbon nanotube contained in solution [2, 9]: about 4.5 mg/mL
saccharide concentration showing the maximum absorbance at 500 nm [3]: 0.2 mg/mL
Molecule: glucuronoxylan [Water-soluble Xylan]

A500 [1, 10]: 0.73
A500 [1, 5]: 4.30
Molecule: gum arabic
amount of the solubilized carbon nanotube (in words) [1]: close to that when using the water-soluble xylan

A500 [1, 6]: 3.48
A500 [1, 5]: 6.28
Molecule: pectin
amount of the solubilized carbon nanotube (in words) [1]: close to that when using the water-soluble xylan

A500 ([1]; saccharide 1.90 mg/mL, supernatant): 2.18
A500 ([1]; saccharide 2.70 mg/mL, supernatant): 5.26
Molecule: polygalacturonic acid
amount of the solubilized carbon nanotube (in words) [1]: close to that when using the water-soluble xylan
